In publication PMC10905675, “INX-315, a Selective CDK2 Inhibitor, Induces Cell Cycle Arrest and Senescence in Solid Tumors” (Cancer Discovery, 2023):

Columns and labels:
Assay in all cases: SelectScreen ZLYTE
Assay type in all cases: biochemical
Conditions in all cases: INX-0315 at 100nM
GRK4 = molecular target: T1, GRK4 (Homo sapiens, UniProt P32298)
T1 construct: purchased Thermo Fisher Scientific SelectScreen (plus Nanosyn / Reaction Biology for CDK/cyclin lines)
Excerpt: (§1) INX-315 was first evaluated in the SelectScreen Biochemical Kinase Profiling at Thermo Fisher Scientific (Madison, WI). The primary screen consisted of INX-315 dosed at a single concentration of 100 nmol/L in 1% DMSO across each platform within the SelectScreen array of assays, LanthaScreen Eu Kinase Binding Assay; AdaptaScreen; and Z'LyteScreen using preestablished conditions at Thermo Fisher Scientific as shown in Supplementary Table S2. […] The follow-up screen consisted of 10-point dose–response curves for INX-315 from 1 µmol/L to 0.0495 nmol/L.

IGF1R = molecular target: T2, IGF1R (Homo sapiens, UniProt P08069)
T2 construct: purchased Thermo Fisher Scientific SelectScreen (plus Nanosyn / Reaction Biology for CDK/cyclin lines)
Excerpt: as §1

MET M1250T = molecular target: T3, MET M1250T (Homo sapiens, UniProt P08581, M1250T)
T3 construct: purchased Thermo Fisher Scientific SelectScreen (plus Nanosyn / Reaction Biology for CDK/cyclin lines)
Excerpt: as §1

AMPK (A2/B1/G2) = molecular target: T4, AMPK (A2/B1/G2) (Homo sapiens, UniProt P54646)
T4 construct: purchased Thermo Fisher Scientific SelectScreen (plus Nanosyn / Reaction Biology for CDK/cyclin lines)
Excerpt: as §1

CSNK1D (CK1 delta) = molecular target: T5, CSNK1D (CK1 delta) (Homo sapiens, UniProt P48730)
T5 construct: purchased Thermo Fisher Scientific SelectScreen (plus Nanosyn / Reaction Biology for CDK/cyclin lines)
T5 sequence (P48730 whole entry): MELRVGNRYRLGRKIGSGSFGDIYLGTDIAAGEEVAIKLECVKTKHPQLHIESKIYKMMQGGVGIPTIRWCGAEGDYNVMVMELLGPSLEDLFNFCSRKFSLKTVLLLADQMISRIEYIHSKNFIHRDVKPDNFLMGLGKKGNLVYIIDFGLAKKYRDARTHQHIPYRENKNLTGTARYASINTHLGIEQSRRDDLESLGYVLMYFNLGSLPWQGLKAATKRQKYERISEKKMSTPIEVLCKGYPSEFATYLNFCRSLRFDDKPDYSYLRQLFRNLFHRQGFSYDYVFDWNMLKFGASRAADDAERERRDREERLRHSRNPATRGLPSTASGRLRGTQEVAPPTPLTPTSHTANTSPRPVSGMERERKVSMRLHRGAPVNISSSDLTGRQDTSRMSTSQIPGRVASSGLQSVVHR
Excerpt: as §1

EGFR (ErbB1) C797S = molecular target: T6, EGFR (ErbB1) C797S (Homo sapiens, UniProt P00533, C797S)
T6 construct: purchased Thermo Fisher Scientific SelectScreen (plus Nanosyn / Reaction Biology for CDK/cyclin lines)
Excerpt: as §1

PDGFRA D842V = molecular target: T7, PDGFRA D842V (Homo sapiens, UniProt P16234, D842V)
T7 construct: purchased Thermo Fisher Scientific SelectScreen (plus Nanosyn / Reaction Biology for CDK/cyclin lines)
Excerpt: as §1

MAPKAPK3 = molecular target: T8, MAPKAPK3 (Homo sapiens, UniProt Q16644)
T8 construct: purchased Thermo Fisher Scientific SelectScreen (plus Nanosyn / Reaction Biology for CDK/cyclin lines)
Excerpt: as §1

RET Y791F = molecular target: T9, RET Y791F (Homo sapiens, UniProt P07949, Y791F)
T9 construct: purchased Thermo Fisher Scientific SelectScreen (plus Nanosyn / Reaction Biology for CDK/cyclin lines)
T9 sequence (P07949 29-1114 Y791F): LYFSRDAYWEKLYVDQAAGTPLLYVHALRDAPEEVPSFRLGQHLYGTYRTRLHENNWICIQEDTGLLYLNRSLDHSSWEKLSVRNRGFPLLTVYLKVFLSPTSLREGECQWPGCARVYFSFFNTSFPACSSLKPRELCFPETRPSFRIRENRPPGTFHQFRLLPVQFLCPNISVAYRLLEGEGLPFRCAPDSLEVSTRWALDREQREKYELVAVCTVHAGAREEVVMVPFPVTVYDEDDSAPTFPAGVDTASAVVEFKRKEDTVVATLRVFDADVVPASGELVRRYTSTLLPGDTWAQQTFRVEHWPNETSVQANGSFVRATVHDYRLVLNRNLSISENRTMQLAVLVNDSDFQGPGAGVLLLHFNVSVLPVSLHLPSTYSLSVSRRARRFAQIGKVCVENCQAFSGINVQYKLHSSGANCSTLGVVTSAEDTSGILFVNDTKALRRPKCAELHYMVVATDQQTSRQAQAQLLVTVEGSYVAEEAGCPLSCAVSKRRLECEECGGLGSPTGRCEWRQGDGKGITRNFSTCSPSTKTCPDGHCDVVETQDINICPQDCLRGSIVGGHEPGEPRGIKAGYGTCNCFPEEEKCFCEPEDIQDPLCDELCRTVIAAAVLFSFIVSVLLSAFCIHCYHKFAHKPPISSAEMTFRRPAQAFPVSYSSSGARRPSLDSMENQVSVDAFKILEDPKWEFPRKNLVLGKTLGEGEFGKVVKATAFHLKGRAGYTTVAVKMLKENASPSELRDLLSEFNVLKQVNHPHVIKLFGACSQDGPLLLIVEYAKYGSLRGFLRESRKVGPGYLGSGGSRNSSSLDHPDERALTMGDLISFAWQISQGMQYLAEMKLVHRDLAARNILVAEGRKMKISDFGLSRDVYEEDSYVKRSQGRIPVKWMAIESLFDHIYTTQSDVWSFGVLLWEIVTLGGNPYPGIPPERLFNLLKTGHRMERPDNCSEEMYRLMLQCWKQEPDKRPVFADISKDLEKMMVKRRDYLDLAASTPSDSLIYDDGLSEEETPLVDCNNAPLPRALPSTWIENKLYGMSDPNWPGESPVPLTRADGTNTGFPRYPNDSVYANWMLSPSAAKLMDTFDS
Excerpt: as §1

MAP4K2 (GCK) = molecular target: T10, MAP4K2 (GCK) (Homo sapiens, UniProt Q12851)
T10 construct: purchased Thermo Fisher Scientific SelectScreen (plus Nanosyn / Reaction Biology for CDK/cyclin lines)
Excerpt: as §1

EPHA2 = molecular target: T11, EPHA2 (Homo sapiens, UniProt P29317)
T11 construct: purchased Thermo Fisher Scientific SelectScreen (plus Nanosyn / Reaction Biology for CDK/cyclin lines)
Excerpt: as §1

CSNK1E (CK1 epsilon) = molecular target: T12, CSNK1E (CK1 epsilon) (Homo sapiens, UniProt P49674)
T12 construct: purchased Thermo Fisher Scientific SelectScreen (plus Nanosyn / Reaction Biology for CDK/cyclin lines)
Excerpt: as §1

FGFR2 = molecular target: T13, FGFR2 (Homo sapiens, UniProt P21802)
T13 construct: purchased Thermo Fisher Scientific SelectScreen (plus Nanosyn / Reaction Biology for CDK/cyclin lines)
Excerpt: as §1

HCK = molecular target: T14, HCK (Homo sapiens, UniProt P08631)
T14 construct: purchased Thermo Fisher Scientific SelectScreen (plus Nanosyn / Reaction Biology for CDK/cyclin lines)
Excerpt: as §1

ABL1 = molecular target: T15, ABL1 (Homo sapiens, UniProt P00519)
T15 construct: purchased Thermo Fisher Scientific SelectScreen (plus Nanosyn / Reaction Biology for CDK/cyclin lines)
Excerpt: as §1

KDR (VEGFR2) = molecular target: T16, KDR (VEGFR2) (Homo sapiens, UniProt P35968)
T16 construct: purchased Thermo Fisher Scientific SelectScreen (plus Nanosyn / Reaction Biology for CDK/cyclin lines)
Excerpt: as §1

TYK2 = molecular target: T17, TYK2 (Homo sapiens, UniProt P29597)
T17 construct: purchased Thermo Fisher Scientific SelectScreen (plus Nanosyn / Reaction Biology for CDK/cyclin lines)
Excerpt: as §1

JAK2 JH1 JH2 V617F = molecular target: T18, JAK2 JH1 JH2 V617F (Homo sapiens, UniProt O60674, V617F)
T18 construct: JAK2 JH1 JH2 V617F; purchased Thermo Fisher Scientific SelectScreen (plus Nanosyn / Reaction Biology for CDK/cyclin lines)
T18 sequence (O60674 532-1132 V617F limits assumed): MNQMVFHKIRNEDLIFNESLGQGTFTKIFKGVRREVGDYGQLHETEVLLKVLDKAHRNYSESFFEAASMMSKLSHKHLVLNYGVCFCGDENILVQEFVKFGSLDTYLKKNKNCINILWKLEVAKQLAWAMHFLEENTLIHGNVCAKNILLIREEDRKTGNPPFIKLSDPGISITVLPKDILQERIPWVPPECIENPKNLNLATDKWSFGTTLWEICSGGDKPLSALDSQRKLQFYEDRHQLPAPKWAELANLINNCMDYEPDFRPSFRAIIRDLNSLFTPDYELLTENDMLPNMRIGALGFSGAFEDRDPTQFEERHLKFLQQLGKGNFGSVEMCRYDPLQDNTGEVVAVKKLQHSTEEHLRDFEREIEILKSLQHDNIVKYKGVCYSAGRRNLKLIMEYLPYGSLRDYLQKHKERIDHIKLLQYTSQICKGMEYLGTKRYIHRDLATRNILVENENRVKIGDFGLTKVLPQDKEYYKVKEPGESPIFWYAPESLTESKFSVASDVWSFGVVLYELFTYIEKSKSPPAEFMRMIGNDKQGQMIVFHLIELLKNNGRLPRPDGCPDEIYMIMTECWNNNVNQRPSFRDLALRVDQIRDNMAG
Excerpt: as §1

FRAP1 (mTOR) = molecular target: T19, FRAP1 (mTOR) (Homo sapiens, UniProt P42345)
T19 construct: purchased Thermo Fisher Scientific SelectScreen (plus Nanosyn / Reaction Biology for CDK/cyclin lines)
Excerpt: as §1

KIT T670I = molecular target: T20, KIT T670I (Homo sapiens, UniProt P10721, T670I)
T20 construct: purchased Thermo Fisher Scientific SelectScreen (plus Nanosyn / Reaction Biology for CDK/cyclin lines)
Excerpt: as §1

EGFR (ErbB1) T790M = molecular target: T21, EGFR (ErbB1) T790M (Homo sapiens, UniProt P00533, T790M)
T21 construct: purchased Thermo Fisher Scientific SelectScreen (plus Nanosyn / Reaction Biology for CDK/cyclin lines)
Excerpt: as §1

PLK3 = molecular target: T22, PLK3 (Homo sapiens, UniProt Q9H4B4)
T22 construct: purchased Thermo Fisher Scientific SelectScreen (plus Nanosyn / Reaction Biology for CDK/cyclin lines)
T22 sequence (Q9H4B4 whole entry): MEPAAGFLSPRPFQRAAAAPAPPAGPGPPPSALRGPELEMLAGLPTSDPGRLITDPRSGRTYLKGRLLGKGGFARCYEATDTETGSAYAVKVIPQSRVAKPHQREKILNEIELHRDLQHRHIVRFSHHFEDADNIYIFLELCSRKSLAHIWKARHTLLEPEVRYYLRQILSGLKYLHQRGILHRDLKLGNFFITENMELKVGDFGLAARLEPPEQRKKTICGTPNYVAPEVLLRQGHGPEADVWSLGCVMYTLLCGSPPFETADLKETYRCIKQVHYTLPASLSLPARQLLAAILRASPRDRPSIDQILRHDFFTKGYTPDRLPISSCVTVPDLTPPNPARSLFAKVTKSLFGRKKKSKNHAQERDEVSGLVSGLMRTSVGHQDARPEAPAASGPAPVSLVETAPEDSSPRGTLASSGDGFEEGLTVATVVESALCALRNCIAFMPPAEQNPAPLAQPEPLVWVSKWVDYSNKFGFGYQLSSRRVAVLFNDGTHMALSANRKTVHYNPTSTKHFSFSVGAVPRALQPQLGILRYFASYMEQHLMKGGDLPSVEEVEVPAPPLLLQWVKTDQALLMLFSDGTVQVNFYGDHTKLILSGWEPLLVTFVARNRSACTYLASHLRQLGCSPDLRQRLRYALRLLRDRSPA
Excerpt: as §1

IKBKE (IKK epsilon) = molecular target: T23, IKBKE (IKK epsilon) (Homo sapiens, UniProt Q14164)
T23 construct: purchased Thermo Fisher Scientific SelectScreen (plus Nanosyn / Reaction Biology for CDK/cyclin lines)
Excerpt: as §1

MET (cMet) Y1235D = molecular target: T24, MET (cMet) Y1235D (Homo sapiens, UniProt P08581, Y1235D)
T24 construct: purchased Thermo Fisher Scientific SelectScreen (plus Nanosyn / Reaction Biology for CDK/cyclin lines)
Excerpt: as §1

LTK (TYK1) = molecular target: T25, LTK (TYK1) (Homo sapiens, UniProt P29376)
T25 construct: purchased Thermo Fisher Scientific SelectScreen (plus Nanosyn / Reaction Biology for CDK/cyclin lines)
T25 sequence (P29376 17-864): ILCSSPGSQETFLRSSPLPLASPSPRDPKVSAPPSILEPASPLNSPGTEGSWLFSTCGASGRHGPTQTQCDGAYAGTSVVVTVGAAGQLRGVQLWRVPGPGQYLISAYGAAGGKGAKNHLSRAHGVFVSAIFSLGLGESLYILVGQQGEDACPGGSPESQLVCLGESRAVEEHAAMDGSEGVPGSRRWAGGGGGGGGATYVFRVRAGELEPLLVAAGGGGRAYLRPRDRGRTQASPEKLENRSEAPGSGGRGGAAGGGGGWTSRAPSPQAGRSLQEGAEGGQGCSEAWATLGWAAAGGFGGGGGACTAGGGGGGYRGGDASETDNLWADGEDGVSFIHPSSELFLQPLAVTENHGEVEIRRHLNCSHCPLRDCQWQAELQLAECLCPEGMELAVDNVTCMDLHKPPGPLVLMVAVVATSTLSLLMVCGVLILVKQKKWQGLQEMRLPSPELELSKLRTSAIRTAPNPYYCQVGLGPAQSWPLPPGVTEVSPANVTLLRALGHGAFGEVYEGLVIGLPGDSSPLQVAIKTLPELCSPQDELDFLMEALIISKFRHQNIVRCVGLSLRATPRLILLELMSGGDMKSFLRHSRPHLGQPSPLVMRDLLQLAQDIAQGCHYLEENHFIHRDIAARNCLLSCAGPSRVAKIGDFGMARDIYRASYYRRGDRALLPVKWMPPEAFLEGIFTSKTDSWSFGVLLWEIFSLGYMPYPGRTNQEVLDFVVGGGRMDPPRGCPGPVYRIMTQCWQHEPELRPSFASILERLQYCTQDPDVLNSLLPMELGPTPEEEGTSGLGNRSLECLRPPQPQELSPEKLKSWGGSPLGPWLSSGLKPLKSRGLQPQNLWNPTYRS
Excerpt: as §1

MAPK1 (ERK2) = molecular target: T26, MAPK1 (ERK2) (Homo sapiens, UniProt P28482)
T26 construct: purchased Thermo Fisher Scientific SelectScreen (plus Nanosyn / Reaction Biology for CDK/cyclin lines)
Excerpt: as §1

EGFR (ErbB1) L861Q = molecular target: T27, EGFR (ErbB1) L861Q (Homo sapiens, UniProt P00533, L861Q)
T27 construct: purchased Thermo Fisher Scientific SelectScreen (plus Nanosyn / Reaction Biology for CDK/cyclin lines)
Excerpt: as §1

FGFR2 N549H = molecular target: T28, FGFR2 N549H (Homo sapiens, UniProt P21802, N549H)
T28 construct: purchased Thermo Fisher Scientific SelectScreen (plus Nanosyn / Reaction Biology for CDK/cyclin lines)
Excerpt: as §1

FGFR3 = molecular target: T29, FGFR3 (Homo sapiens, UniProt P22607)
T29 construct: purchased Thermo Fisher Scientific SelectScreen (plus Nanosyn / Reaction Biology for CDK/cyclin lines)
Excerpt: as §1

EGFR (ErbB1) G719S = molecular target: T30, EGFR (ErbB1) G719S (Homo sapiens, UniProt P00533, G719S)
T30 construct: purchased Thermo Fisher Scientific SelectScreen (plus Nanosyn / Reaction Biology for CDK/cyclin lines)
Excerpt: as §1

SRC = molecular target: T31, SRC (Homo sapiens, UniProt P12931)
T31 construct: purchased Thermo Fisher Scientific SelectScreen (plus Nanosyn / Reaction Biology for CDK/cyclin lines)
Excerpt: as §1

DYRK3 = molecular target: T32, DYRK3 (Homo sapiens, UniProt O43781)
T32 construct: purchased Thermo Fisher Scientific SelectScreen (plus Nanosyn / Reaction Biology for CDK/cyclin lines)
Excerpt: as §1

MAPK14 (p38 alpha) = molecular target: T33, MAPK14 (p38 alpha) (Homo sapiens, UniProt Q16539)
T33 construct: purchased Thermo Fisher Scientific SelectScreen (plus Nanosyn / Reaction Biology for CDK/cyclin lines)
T33 sequence (Q16539 whole entry): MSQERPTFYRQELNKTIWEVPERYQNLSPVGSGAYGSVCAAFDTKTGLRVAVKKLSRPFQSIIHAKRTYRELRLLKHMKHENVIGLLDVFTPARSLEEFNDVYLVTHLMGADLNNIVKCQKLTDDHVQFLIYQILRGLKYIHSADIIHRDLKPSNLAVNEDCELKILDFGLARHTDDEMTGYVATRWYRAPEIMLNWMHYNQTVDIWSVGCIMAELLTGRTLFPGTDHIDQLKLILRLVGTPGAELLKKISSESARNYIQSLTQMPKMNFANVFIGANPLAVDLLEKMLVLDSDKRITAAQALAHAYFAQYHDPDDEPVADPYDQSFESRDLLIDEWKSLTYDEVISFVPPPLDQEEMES
Excerpt: as §1

PLK1 = molecular target: T34, PLK1 (Homo sapiens, UniProt P53350)
T34 construct: purchased Thermo Fisher Scientific SelectScreen (plus Nanosyn / Reaction Biology for CDK/cyclin lines)
Excerpt: as §1

BTK = molecular target: T35, BTK (Homo sapiens, UniProt Q06187)
T35 construct: purchased Thermo Fisher Scientific SelectScreen (plus Nanosyn / Reaction Biology for CDK/cyclin lines)
Excerpt: as §1

MKNK1 (MNK1) = molecular target: T36, MKNK1 (MNK1) (Homo sapiens, UniProt Q9BUB5)
T36 construct: purchased Thermo Fisher Scientific SelectScreen (plus Nanosyn / Reaction Biology for CDK/cyclin lines)
T36 sequence (Q9BUB5 whole entry): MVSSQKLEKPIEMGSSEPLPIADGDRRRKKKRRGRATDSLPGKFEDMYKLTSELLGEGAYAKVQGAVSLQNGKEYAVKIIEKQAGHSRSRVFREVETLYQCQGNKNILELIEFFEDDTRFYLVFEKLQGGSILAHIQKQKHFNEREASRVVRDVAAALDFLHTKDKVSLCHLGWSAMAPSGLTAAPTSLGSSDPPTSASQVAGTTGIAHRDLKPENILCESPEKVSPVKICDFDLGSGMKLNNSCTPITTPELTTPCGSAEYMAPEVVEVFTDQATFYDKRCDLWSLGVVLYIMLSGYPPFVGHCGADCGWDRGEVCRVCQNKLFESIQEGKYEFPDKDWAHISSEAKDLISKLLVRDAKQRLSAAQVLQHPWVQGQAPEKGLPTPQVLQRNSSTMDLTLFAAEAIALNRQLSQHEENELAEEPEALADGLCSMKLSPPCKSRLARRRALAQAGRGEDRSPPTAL
Excerpt: as §1

T1 sequence (P32298 whole entry): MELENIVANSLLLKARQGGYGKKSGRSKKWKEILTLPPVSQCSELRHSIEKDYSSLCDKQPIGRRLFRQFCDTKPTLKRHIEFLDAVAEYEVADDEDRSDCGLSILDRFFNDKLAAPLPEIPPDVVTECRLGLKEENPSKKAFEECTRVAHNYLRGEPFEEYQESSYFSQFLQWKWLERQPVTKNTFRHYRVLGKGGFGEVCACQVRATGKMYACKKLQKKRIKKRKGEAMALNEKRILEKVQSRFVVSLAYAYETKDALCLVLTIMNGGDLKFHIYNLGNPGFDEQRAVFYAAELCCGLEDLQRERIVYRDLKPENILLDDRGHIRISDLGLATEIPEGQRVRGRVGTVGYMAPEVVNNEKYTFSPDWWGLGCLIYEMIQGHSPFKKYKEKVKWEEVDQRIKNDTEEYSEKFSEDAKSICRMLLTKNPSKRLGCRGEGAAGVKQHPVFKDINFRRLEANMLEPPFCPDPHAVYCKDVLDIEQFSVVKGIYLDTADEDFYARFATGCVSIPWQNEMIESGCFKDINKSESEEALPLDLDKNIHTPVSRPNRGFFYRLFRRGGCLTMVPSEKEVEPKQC

**Q.** For `NS(=O)(=O)c1ccc(Nc2ncc3cc4n(c3n2)C2(CCCCC2)C(=O)NN4)cc1` [INX-315], which inhibition at 0.1 µM (GRK4) is on record?
**A.** 31%

**Q.** What about the inhibition at 0.1 µM (IGF1R) of the same molecule?
**A.** 9%

**Q.** What about the inhibition at 0.1 µM (MET M1250T) of the same molecule?
**A.** 3%

**Q.** What about the inhibition at 0.1 µM (AMPK (A2/B1/G2)) of the same molecule?
**A.** 20%

**Q.** And the inhibition at 0.1 µM (CSNK1D (CK1 delta))?
**A.** 0%

**Q.** And the inhibition at 0.1 µM (EGFR (ErbB1) C797S)?
**A.** -8%

**Q.** What about the inhibition at 0.1 µM (PDGFRA D842V) of the same molecule?
**A.** 13%

**Q.** What about the inhibition at 0.1 µM (MAPKAPK3) of the same molecule?
**A.** 8%

**Q.** And the inhibition at 0.1 µM (RET Y791F)?
**A.** 50%

**Q.** What about the inhibition at 0.1 µM (MAP4K2 (GCK)) of the same molecule?
**A.** 0%

**Q.** And the inhibition at 0.1 µM (EPHA2)?
**A.** 14%

**Q.** What about the inhibition at 0.1 µM (CSNK1E (CK1 epsilon)) of the same molecule?
**A.** -5%

**Q.** And the inhibition at 0.1 µM (FGFR2)?
**A.** 20%

**Q.** What about the inhibition at 0.1 µM (HCK) of the same molecule?
**A.** 10%

**Q.** And the inhibition at 0.1 µM (ABL1)?
**A.** 14%

**Q.** What about the inhibition at 0.1 µM (KDR (VEGFR2)) of the same molecule?
**A.** 42%

**Q.** And the inhibition at 0.1 µM (TYK2)?
**A.** 89%

**Q.** What about the inhibition at 0.1 µM (JAK2 JH1 JH2 V617F) of the same molecule?
**A.** 39%

**Q.** What about the inhibition at 0.1 µM (FRAP1 (mTOR)) of the same molecule?
**A.** 0%

**Q.** What about the inhibition at 0.1 µM (KIT T670I) of the same molecule?
**A.** 7%

**Q.** And the inhibition at 0.1 µM (EGFR (ErbB1) T790M)?
**A.** 5%

**Q.** What about the inhibition at 0.1 µM (PLK3) of the same molecule?
**A.** -2%

**Q.** What about the inhibition at 0.1 µM (IKBKE (IKK epsilon)) of the same molecule?
**A.** 10%

**Q.** What about the inhibition at 0.1 µM (MET (cMet) Y1235D) of the same molecule?
**A.** -2%

**Q.** What about the inhibition at 0.1 µM (LTK (TYK1)) of the same molecule?
**A.** 7%

**Q.** And the inhibition at 0.1 µM (MAPK1 (ERK2))?
**A.** 4%

**Q.** What about the inhibition at 0.1 µM (EGFR (ErbB1) L861Q) of the same molecule?
**A.** 3%

**Q.** What about the inhibition at 0.1 µM (FGFR2 N549H) of the same molecule?
**A.** 16%

**Q.** And the inhibition at 0.1 µM (FGFR3)?
**A.** -3%

**Q.** What about the inhibition at 0.1 µM (EGFR (ErbB1) G719S) of the same molecule?
**A.** 4%

**Q.** What about the inhibition at 0.1 µM (SRC) of the same molecule?
**A.** 8%

**Q.** And the inhibition at 0.1 µM (DYRK3)?
**A.** 8%

**Q.** And the inhibition at 0.1 µM (MAPK14 (p38 alpha))?
**A.** 1%

**Q.** And the inhibition at 0.1 µM (PLK1)?
**A.** 4%

**Q.** And the inhibition at 0.1 µM (BTK)?
**A.** 10%

**Q.** What about the inhibition at 0.1 µM (MKNK1 (MNK1)) of the same molecule?
**A.** 3%
